{"source": "patent US20060041144A1", "about": "(priority 2002, published 2006)", "key": {"Plasmopara viticola": {"tested_on": "Plasmopara viticola", "assay": "Preventive foliar spray test on grape inoculated with Plasmopara viticola zoosporangia (Test Examples 3 and 4)", "format": "in vivo", "details": "grape (variety: Berry A), flowable diluted to 200 ppm, foliar spray before inoculation, observed after 1 day at 23° C. plus 6 days in green house; Test Example 4", "procedure": "Additionally, the control effect was evaluated by visually observing the area of a lesion on a sample plant in investigation and comparing the area of a lesion on a non-treatment plant and the area of a lesion on a treated plant with the compound of the present invention.\nSand loam was compacted in a plastic pot, and a grape (variety: Berry A) was seeded and grown in a green house for 40 days. The compounds of the present invention (I-1), (I-2), (I-6) to (I-12), (II-1), (III-1) and (IV-1) were formulated to flowable according to Formulation Example 6, then, diluted with water to provide given concentration of 200 ppm, and these diluted solutions were sprayed onto stems and leaves so as to give sufficient adhesion on the surface of grape leaves. After spraying, the liquid on the stem was air-dried, and a suspension of zoosporangiua of Plasmopara viticola (about 10,000 zoosporangiua were contained in 1 ml of the suspension) was inoculated by spraying. The amount of the sprayed suspension was about 2 ml for one plant. After inoculation, the plant was first grown for one day at 23° C. under 90% or more humidity, then further grown for 6 days in the green house, which was 24° C. in daytime and 20° C. in night-time.\nThen, the areas of a lesion of the plants were obserbed. […]"}, "Phytophthora infestans": {"tested_on": "Phytophthora infestans", "format": "in vivo", "details": "tomato (variety: Ponterosa), flowable diluted to 200 ppm, foliar spray before inoculation, observed after 1 day at 23° C. plus 4 days in green house; Test Example 2"}}, "data": [{"compound": "C#CCOC(C(=O)Nc1cccnc1-c1ccc(OC)c(OC)c1)c1ccc(Cl)cc1", "note": "(stereo not drawn) [I-1, N-(2-(3,4-dimethoxyphenyl)pyridine-3-yl)-2-(2-propynyloxy)-2-(4-chlorophenyl)acetamide]", "values": [{"measurement": "melting point", "result": 125.2, "unit": "°C"}]}, {"compound": "COc1ccc(-c2ncccc2NC(=O)C(O)c2ccc(C)cc2)cc1OC", "note": "(stereo not drawn) [I-4, N-{2-(3,4-dimethoxyphenyl)pyridine-3-yl}-2-hydroxy-2-(4-methylphenyl)acetamide]", "values": [{"measurement": "lesion area on treated plants relative to the lesion area on a non-treatment plant", "setting": "Plasmopara viticola", "result": "not more than 10%"}]}, {"compound": "COc1ccc(-c2ncccc2NC(=O)C(=C(Cl)Cl)c2ccc(Cl)cc2)cc1OC", "note": "[I-11, N-(2-(3,4-dimethoxyphenyl)-pyridine-3-yl)-2-(chlorophenyl)-3,3-dichloroacrylamide]", "values": [{"measurement": "lesion area on treated plants relative to the lesion area on a non-treatment plant", "setting": "Phytophthora infestans", "result": "not more than 10%"}]}]}
